Earlier results on 1 compound are cited in US20130281457A1, “PHARMACEUTICAL COMPOSITIONS COMPRISING 5-CHLORO-N-(-METHYL)-2-THIOPHENCARBOXAMID” (Ratiopharm GmbH, priority 2008, published 2013).

The structures appear in SMILES notation.

For the compound `O=C(NC[C@H]1CN(c2ccc(N3CCOCC3=O)cc2)C(=O)O1)c1ccc(Cl)s1` [Compound I, 5-Chloro-N-({(5S)-2-oxo-3-[4-(3-oxo-4-morpholinyl)-phenyl]-1,3-oxazolidin-5-yl}-methyl)-2-thiophencarboxamid], the solubility in water result is listed as “only limited solubility in water”.
